The results in this text go back to paper PMC9728195, “Purification and Characterization of Anabaena flos-aquae Phenylalanine Ammonia-Lyase as a Novel Approach for Myristicin Biotransformation” (Journal of Microbiology and Biotechnology, 2019).

Assay [1] concerns T1, PAL from Anabaena flos-aquae (A. flos-aquae PAL).
T1 construct: native enzyme purified from algal culture (acetone precipitation, Sephadex G-200, DEAE-cellulose); 64 kDa band on SDS-PAGE
Kind of assay: forward deamination assay, cinnamic acid absorbance at […] nm. The class given is biochemical, Dolichospermum flosaquae. Conditions: Tris-HCl pH 8.9; standard assay at 37 °C.

Assay [2] concerns T2, PAL from Spirulina platensis (S. platensis PAL).
T2 construct: native enzyme purified from algal culture (acetone precipitation, Sephadex G-200, DEAE-cellulose); 64 kDa band on SDS-PAGE
The description is as above. The class given is biochemical, Limnospira platensis. The conditions noted are these: Tris-HCl pH 8.9; standard assay at 37 °C.

The test system of assay [3] is T1, PAL from Anabaena flos-aquae (A. flos-aquae PAL). Kind of assay: reverse hydroamination assay, L-phenylalanine formation at […] nm. The class given is biochemical, Dolichospermum flosaquae. Conditions: co-substrate NH4OH (stock 5 M); Tris-HCl pH 8.9; standard assay at 37 °C.
The subject of assay [4] is T2, PAL from Spirulina platensis (S. platensis PAL). The description is as above. Conditions: co-substrate NH4OH (stock 5 M); Tris-HCl pH 8.9 (standard assay); 37 °C. The class given is biochemical, Limnospira platensis.

For `N[C@@H](Cc1ccccc1)C(=O)O` [L-phenylalanine], the Km in assay [1] was determined as 1500 µM; in assay [2], 1640 µM.
`O=C(O)/C=C/c1ccccc1` [trans-cinnamic acid]: the Km in assay [3] was determined as 300 µM; in assay [4], 610 µM.
